# Tests used:
# [1] = target: T1, human RORγt (Ligand Binding Domain) (Homo sapiens, UniProt P51449); experiment: Fluorescence Polarization (FP) Assay; conditions: 100 nM human RORγt LBD, 25 nM TAMRA probe, values are activity range bounds
# T1 construct: purchased Crelux (Planegg, Germany) batch no PC5032-1
# T1 sequence (P51449 269-508 limits assumed): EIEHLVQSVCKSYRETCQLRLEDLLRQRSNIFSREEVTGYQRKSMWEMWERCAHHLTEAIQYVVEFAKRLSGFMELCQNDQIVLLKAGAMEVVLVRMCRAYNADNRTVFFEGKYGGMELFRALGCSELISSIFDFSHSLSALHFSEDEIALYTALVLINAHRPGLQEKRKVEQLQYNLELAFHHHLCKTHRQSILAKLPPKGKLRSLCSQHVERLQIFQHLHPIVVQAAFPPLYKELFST
# In short: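 In vitro fluorescence polarization binding assay on the RORγt ligand-binding pocket. A TAMRA-labelled RORγt ligand probe (MW 910 g/mol) was used, with DMSO as negative control.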
# [2] = target: T2, ligand binding domain of human RORγ (Homo sapiens, UniProt P51449); experiment: RORγ Reporter Assay (Gal4); assay type: cell-based; conditions: for inhibition at 1 µM: HEK-293T, 1 μM test compound, HEK293t RORγ reporter cells, 24 hour, read-out: Gal4 activity range @ 1 μM (% inhibition); for Gal4 activity range @ 0.1 μM (% inhibition): RORγ Reporter Assay (Gal4), HEK293t reporter cells, compound at 0.1 μM, values are activity range bounds
# T2 construct: host or cells: HEK293t
# T2 sequence (P51449 269-508 limits assumed): T1 sequence (P51449 269-508 limits assumed)
# Experimental: The activity of the compounds was evaluated using a Fluorescence Polarization (FP) Assay and, RORγ Reporter assay (also referred to as Gal4 assay). The FP assay is an in vitro assay monitoring binding within the ligand binding pocket. The RORγ and the Th17 assays (another suitable assay) are both cell-based assays monitoring functional activity of the compound assayed.
# RORγ Reporter Assay (Gal4)
# Cell-based RORγ functional assays were performed using a commercially available assay product (INDIGO Biosciences, State College, Pa., USA; product # IB04001). The RORγ reporter cells are HEK293t cells transfected with one vector that provides high level constitutive expression of a hybrid protein comprised of the yeast Gal4-DNA binding domain fused to the ligand binding domain of human RORγ, and a second vector comprising the firefly luciferase cDNA functionally linked to the upstream activation sequence (UAS) of yeast Gal4. A suspension of RORγ Reporter Cells was prepared using the protocol and culture medium provided in the kit product, and 100 μl of the Reporter Cell suspension was then dispensed into wells of a white, collagen-treated, 96-well assay plate. Concentrated stocks of test compounds were prepared in DMSO, then further diluted using media provided in the kit to generate ‘2×-concentration’ treatment media. 100 μl of medium for each respective treatment concentration dispensed into triplicate assay wells, thereby combining with the reporter cells. All media formulations contained 10% charcoal stripped Fetal Bovine Serum, but are otherwise proprietary to INDIGO Biosciences. Final treatment concentrations for each test compound were 1,000 nM and 100 nM, each with 0.1% residual DMSO. Separate control treatments were media supplemented with vehicle only (0.1% DMSO) to determine the constitutive level of RORγ activity in the reporter cells, and the reference inverse-agonist ursolic acid (f.c. 6,000 nM to 8.2 nM in 3-fold decrements) to establish a positive control inverse-agonist dose response. Assay plates were placed in a 37° C., 5% CO2, 85% humidity incubator for 24 hour. Treatment media were then discarded, 100 μl of luciferase detection reagent was added to each well, and relative light units (RLUs) were quantified from each assay well using a plate reading luminometer. Values of average RLU+/−standard deviation were computed for all treatment sets, followed by the calculations of fold-reduction: [Average RLUVehicle/Average RLUTest Cmpd]. Percent-reduction of RORγ activity in response to respective test compound treatments was calculated: [100*(1−[Ave RLUTest Cmpd/Ave RLUVehicle)] where the theoretical minimum reduction (0% reduction) derives from Vehicle treatment only, no treatment compound. In some aspects it may be of interest to provide compounds with selective modulation of RORγ for example compounds that are selective to RORγ over RORα, compounds that are selective for RORγ versus RORPβ, and compounds that are selective for RORγ versus BOTH RORα and RORPβ. It may also be of interest to provide compounds that are selective for RORγ versus further nuclear hormone receptors such as CAR1, FXR, GR, LXRα, LXRβ, PPARα, PXR, RARα, RXRα, TRα, VDR. It is apparent to those skilled in the art that these nuclear hormone receptors are merely examples, and that selectivity against other nuclear receptors may also be of interest. It may for example be of interest to provide compounds that modulate RORγ and one or more further nuclear hormone receptors, as well as compounds that modulate both RORγ and RORα, or RORγ and RORβ. It may also be of interest to provide compounds that modulate RORγ and BOTH RORα and RORP, as well as compounds that modulate both RORγ and one or more further nuclear hormone receptors such as CAR1, FXR, GR, LXRα, LXRβ, PPARα, PXR, RARα, RXRα, TRα, VDR. It is apparent to those skilled in the art that these nuclear hormone receptors are merely examples, and that modulation of even other nuclear receptors may also be of interest. […]
SMILES,IC50 [1],inhibition at 1 µM [2],Gal4 activity range @ 0.1 μM (% inhibition) [2]
"NC(=O)Cc1ccc(CNc2ncnc(N(C3CC3)C(c3ccc(C(F)(F)F)cc3)C3CCC3)c2F)cc1 (centres unmarked) [Example A17, 2-[4-[[[6-[[cyclobutyl-[4-(trifluoromethyl)phenyl]methyl]-cyclopropyl-amino]-5-fluoro-pyrimidin-4-yl]amino]methyl]phenyl]acetamide]",< 2000 nM,> 50%,>20 % inhibition
"NC(=O)Cc1ccc(CNc2ncnc(N(Cc3ccc(C(F)(F)F)cc3)CC3CC3)c2F)cc1 [Example A18, 2-[4-[[[6-[cyclopropylmethyl-[[4-(trifluoromethyl)phenyl]methyl]amino]-5-fluoro-pyrimidin-4-yl]amino]methyl]phenyl]acetamide]",< 500 nM,> 80%,>50 % inhibition
"CN(Cc1ccc(C(F)(F)F)cc1)c1ncnc(NCc2ccc(CC(N)=O)cc2)c1F [Example A19, 2-[4-[[[5-fluoro-6-[methyl-[[4-(trifluoromethyl)phenyl]methyl]amino]pyrimidin-4-yl]amino]methyl]phenyl]acetamide]",< 500 nM,> 80%,>20 % inhibition
"CN(Cc1ccc(OC(F)(F)F)cc1)c1ncnc(NCc2ccc(CC(N)=O)cc2)c1F [Example A20, 2-[4-[[[5-fluoro-6-[methyl-[[4-(trifluoromethoxy)phenyl]methyl]amino]pyrimidin-4-yl]amino]methyl]phenyl]acetamide]",< 2000 nM,> 50%,>20 % inhibition
"NC(=O)Cc1ccc(CNc2ncnc(N(Cc3ccccc3)C3CC3)c2F)cc1 [Example A42, 2-[4-[[[6-[benzyl(cyclopropyl)amino]-5-fluoro-pyrimidin-4-yl]amino]methyl]phenyl]acetamide]",< 500 nM,> 50%,>20 % inhibition
"CN(Cc1ccc(-n2cccn2)cc1)c1ncnc(NCc2ccc(CC(N)=O)cc2)c1F [Example A52, 2-[4-[[[5-fluoro-6-[methyl-[(4-pyrazol-1-ylphenyl)methyl]amino]pyrimidin-4-yl]amino]methyl]phenyl]acetamide]",< 500 nM,> 50%,>0 % inhibition
"CC(C)c1ccc(CN(c2ncnc(NCc3ccc(CC(N)=O)cc3)c2F)C2CC2)cc1 [Example A53, 2-[4-[[[6-[cyclopropyl-[(4-isopropylphenyl)methyl]amino]-5-fluoro-pyrimidin-4-yl]amino]methyl]phenyl]acetamide]",< 500 nM,> 80%,>80 % inhibition
"CCOc1ccc(CN(c2ncnc(NCc3ccc(CC(N)=O)cc3)c2F)C2CC2)cc1 [Example A54, 2-[4-[[[6-[cyclopropyl-[(4-ethoxyphenyl)methyl]amino]-5-fluoro-pyrimidin-4-yl]amino]methyl]phenyl]acetamide]",< 500 nM,> 80%,>50 % inhibition
"COc1cccc(CN(c2ncnc(NCc3ccc(CC(N)=O)cc3)c2F)C2CC2)c1 [Example A55, 2-[4-[[[6-[cyclopropyl-[(3-methoxyphenyl)methyl]amino]-5-fluoro-pyrimidin-4-yl]amino]methyl]phenyl]acetamide]",< 500 nM,> 0%,
"OCC1(Cn2ccc3c(N(Cc4ccc(C(F)(F)F)cc4)C4CC4)ncnc32)COC1 [Example A56, [3-[[4-[cyclopropyl-[[4-(trifluoromethyl)phenyl]methyl]amino]pyrrolo[2,3-d]pyrimidin-7-yl]methyl]oxetan-3-yl]methanol]",< 500 nM,> 80%,>80 % inhibition
"O=S(=O)(N[C@H]1CC[C@H](CNc2ncnc(N(Cc3ccc(C(F)(F)F)cc3)C3CC3)c2F)CC1)C(F)(F)F [Example A57, N-[4-[[[6-[cyclopropyl-[[4-(trifluoromethyl)phenyl]methyl]amino]-5-fluoro-pyrimidin-4-yl]amino]methyl]cyclohexyl]-1,1,1-trifluoro-methanesulfonamide]",< 500 nM,> 80%,>50 % inhibition
"CN(Cc1cccc(-n2cccn2)c1)c1ncnc(NCc2ccc(CC(N)=O)cc2)c1F [Example A58, 2-[4-[[[5-fluoro-6-[methyl-[(3-pyrazol-1-ylphenyl)methyl]amino]pyrimidin-4-yl]amino]methyl]phenyl]acetamide]",< 500 nM,> 80%,>20 % inhibition
"CS(=O)(=O)Nc1ccc(CNc2ncnc(N(Cc3ccc(C(F)(F)F)cc3)C3CC3)c2F)cc1 [Example A59, N-[4-[[[6-[cyclopropyl-[[4-(trifluoromethyl)phenyl]methyl]amino]-5-fluoro-pyrimidin-4-yl]amino]methyl]phenyl]methane-sulfonamide]",< 500 nM,> 80%,>80 % inhibition
"O=S(=O)(Nc1ccc(CNc2ncnc(N(Cc3ccc(C(F)(F)F)cc3)C3CC3)c2F)cc1)C(F)(F)F [Example A60, N-[4-[[[6-[cyclopropyl-[[4-(trifluoromethyl)phenyl]methyl]amino]-5-fluoro-pyrimidin-4-yl]amino]methyl]phenyl]-1,1,1-trifluoro-methanesulfonamide]",< 500 nM,> 80%,>0 % inhibition
"Fc1c(NC[C@H]2CC[C@H](Cc3nnn[nH]3)CC2)ncnc1N(Cc1ccc(C(F)(F)F)cc1)C1CC1 [Example A61, N4-cyclopropyl-5-fluoro-N6-[[4-(1H-tetrazol-5-ylmethyl)cyclohexyl]methyl]-N4-[[4-(trifluoromethyl)phenyl]methyl] pyrimidine-4,6-diamine]",< 500 nM,> 80%,>20 % inhibition
"N#CC[C@H]1CC[C@H](CNc2ncnc(N(Cc3ccc(C(F)(F)F)cc3)C3CC3)c2F)CC1 [Example A62, 2-[4-[[[6-[cyclopropyl-[[4-(trifluoromethyl)phenyl]methyl]amino]-5-fluoro-pyrimidin-4-yl]amino]methyl]cyclohexyl] acetonitrile]",< 500 nM,> 80%,>80 % inhibition
"CS(=O)(=O)NCC1(CNc2ncnc(N(Cc3ccc(C(F)(F)F)cc3)C3CC3)c2F)CCOCC1 [Example A63, N-[[4-[[[6-[cyclopropyl-[[4-(trifluoromethyl)phenyl]methyl]amino]-5-fluoro-pyrimidin-4-yl]amino]methyl]tetrahydropyran-4-yl]methyl]methanesulfonamide]",< 500 nM,> 80%,>80 % inhibition
